Measurements: patent publication US8735601B2, “Pentamethine cyanine fluorescent dye with N-substituting at β-position of conjugated chain” (Dalian University of Technology, priority 2010, dated 2014)

Columns and labels:
[1] = Absorption and emission spectra of dyes in different solvents; type: physicochemical; design: key to Δλ1 / Δλ2: Stokes shift in nm; ε1 (molar extinction coefficient) / ε2 (molar extinction coefficient): scale not given here; conditions: for Δλ1: Stokes shift to absorption peak 1; for Δλ2: Stokes shift to absorption peak 2
Text: In the present invention, compounds IIa to IIg were synthesized based on compound II, and their spectral properties were investigated. Compared with the traditional pentamethine cyanine dye, for the novel pentamethine cyanine dye with N-substituting at β-position (deviated position), it was observed that, evident blue shift of absorption and emission wavelengths occurred, absorption wavelength blue shifted even largely than that of emission wavelength, absorption spectrum and fluorescence spectrum were no longer mirror-symmetric and had two absorption peaks and a single emission peak, and larger Stokes shift (minimum 60 and 150 nm, and maximum 90 and 230 nm) appeared.

[2] = Measurement of fluorescence quantum yield (Rhodamine B in ethanol as reference); type: physicochemical

Compound: CCN1/C(=C/C=C/C(=C/C2=[N+](CC)c3ccccc3C2(C)C)N(Cc2ccccc2)Cc2ccccc2)C(C)(C)c2ccccc21 [Dye IIf]
- Δλ1 ([1]; solvent DCM): 87
- Δλ1 ([1]; solvent DMSO): 90
- Δλ1 ([1]; solvent Ethanol): 87
- Δλ1 ([1]; solvent Methanol): 90
- Δλ1 ([1]; solvent THF): 86
- Δλ1 ([1]; solvent Water): 93
- Δλ2 ([1]; solvent DCM): 162
- Δλ2 ([1]; solvent DMSO): 151
- Δλ2 ([1]; solvent Ethanol): 163
- Δλ2 ([1]; solvent Methanol): 166
- Δλ2 ([1]; solvent THF): 156
- Δλ2 ([1]; solvent Water): 171
- ε1 (molar extinction coefficient) ([1]; solvent DCM): 3.1 cm^−1M
- ε2 (molar extinction coefficient) ([1]; solvent DCM): 2.1 cm^−1M
- λabs1 ([1]; solvent DCM): 528 nm
- λbs2 ([1]; solvent DCM): 453 nm
- λem ([1]; solvent DCM): 615 nm
- ε1 (molar extinction coefficient) ([1]; solvent DMSO): 3.3 cm^−1M
- ε2 (molar extinction coefficient) ([1]; solvent DMSO): 2.2 cm^−1M
- λabs1 ([1]; solvent DMSO): 521 nm
- λbs2 ([1]; solvent DMSO): 460 nm
- λem ([1]; solvent DMSO): 611 nm
- ε1 (molar extinction coefficient) ([1]; solvent Ethanol): 3.4 cm^−1M
- ε2 (molar extinction coefficient) ([1]; solvent Ethanol): 2.5 cm^−1M
- λabs1 ([1]; solvent Ethanol): 528 nm
- λbs2 ([1]; solvent Ethanol): 452 nm
- λem ([1]; solvent Ethanol): 615 nm
- ε1 (molar extinction coefficient) ([1]; solvent Methanol): 3.4 cm^−1M
- ε2 (molar extinction coefficient) ([1]; solvent Methanol): 2.5 cm^−1M
- λabs1 ([1]; solvent Methanol): 527 nm
- λbs2 ([1]; solvent Methanol): 451 nm
- λem ([1]; solvent Methanol): 617 nm
- ε1 (molar extinction coefficient) ([1]; solvent THF): 4.0 cm^−1M
- ε2 (molar extinction coefficient) ([1]; solvent THF): 2.0 cm^−1M
- λabs1 ([1]; solvent THF): 523 nm
- λbs2 ([1]; solvent THF): 453 nm
- λem ([1]; solvent THF): 609 nm
- ε1 (molar extinction coefficient) ([1]; solvent Water): 2.5 cm^−1M
- ε2 (molar extinction coefficient) ([1]; solvent Water): 1.9 cm^−1M
- λabs1 ([1]; solvent Water): 525 nm
- λbs2 ([1]; solvent Water): 447 nm
- λem ([1]; solvent Water): 618 nm
- Φ1 (fluorescence quantum yield) ([2]; solvent DCM): 0.113
- Φ2 (fluorescence quantum yield) ([2]; solvent DCM): 0.105
- Φ1 (fluorescence quantum yield) ([2]; solvent DMSO): 0.004
- Φ2 (fluorescence quantum yield) ([2]; solvent DMSO): 0.005
- Φ1 (fluorescence quantum yield) ([2]; solvent Ethanol): 0.010
- Φ2 (fluorescence quantum yield) ([2]; solvent Ethanol): 0.009
- Φ1 (fluorescence quantum yield) ([2]; solvent Methanol): 0.005
- Φ2 (fluorescence quantum yield) ([2]; solvent Methanol): 0.004
- Φ1 (fluorescence quantum yield) ([2]; solvent THF): 0.036
- Φ2 (fluorescence quantum yield) ([2]; solvent THF): 0.034
- Φ1 (fluorescence quantum yield) ([2]; solvent Water): 0.001
- Φ2 (fluorescence quantum yield) ([2]; solvent Water): 0.002

Compound: CCN1/C(=C/C=C/C(=C/C2=[N+](CC)c3ccccc3C2(C)C)Nc2ccccc2)C(C)(C)c2ccccc21 [Dye IIg]
- Δλ1 ([1]; solvent DCM): 75
- Δλ1 ([1]; solvent DMSO): 80
- Δλ1 ([1]; solvent Ethanol): 77
- Δλ1 ([1]; solvent Methanol): 77
- Δλ1 ([1]; solvent THF): 83
- Δλ1 ([1]; solvent Water): 81
- Δλ2 ([1]; solvent DCM): 180
- Δλ2 ([1]; solvent DMSO): 230
- Δλ2 ([1]; solvent Ethanol): 206
- Δλ2 ([1]; solvent Methanol): 208
- Δλ2 ([1]; solvent THF): 236
- Δλ2 ([1]; solvent Water): 200
- ε1 (molar extinction coefficient) ([1]; solvent DCM): 3.6 cm^−1M
- ε2 (molar extinction coefficient) ([1]; solvent DCM): 2.1 cm^−1M
- λabs1 ([1]; solvent DCM): 570 nm
- λbs2 ([1]; solvent DCM): 465 nm
- λem ([1]; solvent DCM): 645 nm
- ε1 (molar extinction coefficient) ([1]; solvent DMSO): 1.9 cm^−1M
- ε2 (molar extinction coefficient) ([1]; solvent DMSO): 2.1 cm^−1M
- λabs1 ([1]; solvent DMSO): 566 nm
- λbs2 ([1]; solvent DMSO): 416 nm
- λem ([1]; solvent DMSO): 646 nm
- ε1 (molar extinction coefficient) ([1]; solvent Ethanol): 2.5 cm^−1M
- ε2 (molar extinction coefficient) ([1]; solvent Ethanol): 2.0 cm^−1M
- λabs1 ([1]; solvent Ethanol): 563 nm
- λbs2 ([1]; solvent Ethanol): 434 nm
- λem ([1]; solvent Ethanol): 640 nm
- ε1 (molar extinction coefficient) ([1]; solvent Methanol): 2.3 cm^−1M
- ε2 (molar extinction coefficient) ([1]; solvent Methanol): 2.2 cm^−1M
- λabs1 ([1]; solvent Methanol): 561 nm
- λbs2 ([1]; solvent Methanol): 430 nm
- λem ([1]; solvent Methanol): 638 nm
- ε1 (molar extinction coefficient) ([1]; solvent THF): 0.9 cm^−1M
- ε2 (molar extinction coefficient) ([1]; solvent THF): 2.8 cm^−1M
- λabs1 ([1]; solvent THF): 556 nm
- λbs2 ([1]; solvent THF): 403 nm
- λem ([1]; solvent THF): 639 nm
- ε1 (molar extinction coefficient) ([1]; solvent Water): 1.7 cm^−1M
- ε2 (molar extinction coefficient) ([1]; solvent Water): 2.2 cm^−1M
- λabs1 ([1]; solvent Water): 559 nm
- λbs2 ([1]; solvent Water): 440 nm
- λem ([1]; solvent Water): 640 nm
- Φ1 (fluorescence quantum yield) ([2]; solvent DCM): 0.064
- Φ2 (fluorescence quantum yield) ([2]; solvent DCM): 0.055
- Φ1 (fluorescence quantum yield) ([2]; solvent DMSO): 0.014
- Φ2 (fluorescence quantum yield) ([2]; solvent DMSO): 0.002
- Φ1 (fluorescence quantum yield) ([2]; solvent Ethanol): 0.019
- Φ2 (fluorescence quantum yield) ([2]; solvent Ethanol): 0.006
- Φ1 (fluorescence quantum yield) ([2]; solvent Methanol): 0.011
- Φ2 (fluorescence quantum yield) ([2]; solvent Methanol): 0.004
- Φ1 (fluorescence quantum yield) ([2]; solvent THF): 0.037
- Φ2 (fluorescence quantum yield) ([2]; solvent THF): 0.0002
- Φ1 (fluorescence quantum yield) ([2]; solvent Water): 0.003
- Φ2 (fluorescence quantum yield) ([2]; solvent Water): 0.001
